Experimental data as given in US4778824A, “Method for suppressing a transplantation immunity and treating an allergic disease and an autoimmune disease” (Zaidan Hojin Biseibutsu Kagaku Kenkyu Kai, priority 1984, dated 1988).
Counter-ions that a name gives are not always drawn.

Assays:
[1] = tested on: Allokiller T-lymphocyte; experiment: Inhibition of allokiller T-lymphocyte genesis (51Cr release from P815 mastocytoma); format: in vivo, C 57 BL/b mice
Method: 3×10^7 P815 mastocytoma cells were administered intraperitoneally to C 57 BL/b mice (10 wk old). Twelve days later, spleen cels were isolated and used as effector cells (E). Target cells (T) which were ^51 Cr labelled P815 mastocytoma cells were challenged by the effector cells at varying E/T ratios and the allokiller activity was assayed in terms of the percentage release ^51 Cr. Spergualin was administered for nine consecutive days starting on the day following the transplantation or a single administration was made on the 9th day.

[2] = tested on: IgG antibody production; experiment: Inhibition of IgG antibody production against sheep red blood cells (plaque-forming cells); format: in vivo, CDF 1 mice; details: 50 mg/kg/day i.p.; for IgG plaque forming cell count: ± S.D., significant (P < 0.0001); for inhibition at 50 mg/kg/day: Mus musculus, Erythrocyte, ip, IgG
Method: CDF 1 mice (6-10 wk old, female) were immunized by intravenous injection of 1×10^8 sheep red blood cells. The mice were intraperitoneally administered 50 mg/kg/day of the test compound for a period of 4 days starting on the day following the immunization or 3 days after that day. Seven days after the sensitization, spleen cells were isolated and the number of IgG plaque forming cells was counted by a known method (Yata et al., supra). As in Experiment 3, the percentage inhibition of IgG antibody production was determined.

[3] = tested on: graft-versus-host disease; experiment: Delay of graft-versus-host disease in irradiated CBA mice transplanted with C57BL/6 bone marrow cells and spleen cells; format: in vivo; details: Donor C57BL/6, 10 days
Method: Female CBA mice of 9 week-old and female C57BL/6 mice of 9 week-old were used. A group consisted of 10 mice. Bone marrow cells (10^7) and spleen cells (5×10^6) from CBA mice and C57BL/6 mice were injected i.v. into the whole body irradiation (850 rad) CBA mice. Spergualin was administered i.p. once a day for 10 days starting on one day after the injection of bone marrow cells and spleen cells. The data is indicated as the median survival time.

[4] = tested on: Skin allograft rejection (SHR to Fischer rats); experiment: Inhibition of rejection of skin allograft; format: in vivo; details: ± S.D.
Excerpt: In the next place, the present inventors conducted a skin graft test with rats. In accordance with the method of Denham et al. (Denham et al., International Archives of Allergy and Applied Immunology, vol. 62, pp. 443-458, 1980), the skin of the tail of SHR rats was peeled and allografted onto Fischer rats. […] The inhibitory action of spergualin on tissue rejections is expected to manifest itself not only in skin transplantation but also in the transplantation of such organs as the kidney, heart, spleen, lung, liver, bone marrow and endocrine organs.
Skin sections (5×10 mm) were peeled from the tails of SHR rats (female, 10 wk old) and transplanted to Fischer rats (female, 10 wk old) on the back. Varying doses of spergualin were administered intraperitoneally for a consecutive period of 10 or 20 days starting on the day following the transplantation. Complete necrosis of the graft was used as a measure of rejection and the inhibitory action of the compound was evaluated in terms of how long the rejection was postponed. […] The longer the period of administration, the greater the inhibitory action.

[5] = tested on: B-lymphocyte; experiment: Inhibition of LPS-induced reaction of B-lymphocyte blastogenesis (3H-thymidine uptake); format: cell-based, BALB/c mice; details: LPS 100 μg/ml; for ^3 H--thymidine uptake: ± S.D.
Method: (§1) The present inventors conducted tests to evaluate the actions of spergualin against the reaction of lymphocyte blastogenesis in accordance with the method of Waithe et al. (Waithe et al., Handbook of Experimental Immunology, page 26.1, 1978).
(§2) Spleen cells from BALB/c mice were distritubed among wells in a microplate so that each well contained 2×10^5 cells/0.2 ml. The compound was added to all wells but one, the latter being used as a control. Con A (5 μg/ml) was added to all the wells and the so prepared cell suspensions were cultivated in a 5% CO2 incubator for 72 hours at 37° C. Eight hours before the completion of the incubation, 1 μCi of ^3 H-thymidine was added to each well and the uptake of the thymidine by the cultured cells was measured with a liquid scintillation counter to estimate the progress of the reaction of T-lymphocyte blastogenesis. The percentage inhibition of the blastogenesis by the test compound was calculated by: […] wherein Adpm indicates the uptake count for the addition of only Con A and Bdpm, the count for the addition of both Con A and the test compound.
The uptake of ^3 H-thymidine by B-cell was measured in accordance with the method used in Experiment 1, except that the inducer Con A was replaced by 100 μg/ml of LPS from E. coli. The percentage inhibition of blastogenesis by the test compound was also determined by the same method as used in Experiment 1.

[6] = tested on: acute experimental allergic encephalomyelitis; experiment: Effect on acute experimental allergic encephalomyelitis; format: in vivo, strain 13 guinea pigs; details: 2 weeks, with S.D.
Method: Male strain 13 guinea pigs were used. A group consisted of 5 guinea pigs. An aqueous suspension of 50% syngeneic spinal cord homogenate was emulsified in an equal volume of complete Freund's adjuvant containing M. tuberculosis at 20 mg/ml. The antigen emulsion (0.1 ml) was injected both hindfootpads of a guinea pig. Spergualin was administered i.p. for 2 weeks at 0.78 and 1.56 mg/kg.

[7] = tested on: T-lymphocyte; experiment: Inhibition of Con A-induced reaction of T-lymphocyte blastogenesis (3H-thymidine uptake, BALB/c spleen cells); format: cell-based, BALB/c mice; details: Con A 5 μg/ml, 72 h; for ^3 H--thymidine uptake: ± S.D.
Method: as §1, §2

## N=C(N)NCCCCC(O)CC(=O)NC(O)C(=O)NCCCCNCCCN (stereo not shown) [spergualin (trihydrochloride)]
[1]; 5 mg/kg/day, days 1-9 after transplantation, E/T ratio 5
  Percent release of ^51 Cr: 6%
[1]; 5 mg/kg/day, days 1-9 after transplantation, E/T ratio 10
  Percent release of ^51 Cr: 8%
[1]; 5 mg/kg/day, days 1-9 after transplantation, E/T ratio 20
  Percent release of ^51 Cr: 17%
[1]; 50 mg/kg, single administration day 9, E/T ratio 5
  Percent release of ^51 Cr: 21%
[1]; 50 mg/kg, single administration day 9, E/T ratio 10
  Percent release of ^51 Cr: 30%
[1]; 50 mg/kg, single administration day 9, E/T ratio 20
  Percent release of ^51 Cr: 51%
[1]; 50 mg/kg/day, days 1-9 after transplantation, E/T ratio 5
  Percent release of ^51 Cr: 0%
[1]; 50 mg/kg/day, days 1-9 after transplantation, E/T ratio 10
  Percent release of ^51 Cr: 0%
[1]; 50 mg/kg/day, days 1-9 after transplantation, E/T ratio 20
  Percent release of ^51 Cr: 1%
[2]; days 1-4 after sensitization
  IgG plaque forming cell count: 17 ± 16 cells/10^6 spleen cells
  inhibition at 50 mg/kg/day: 96.7%
[2]; days 3-6 after sensitization
  IgG plaque forming cell count: 19 ± 15 cells/10^6 spleen cells
  inhibition at 50 mg/kg/day: 96.3%
[3]; 3.13 mg/kg i.p. once a day
  80-day survivors, Survivors/Total: 2/10
  MST (median survival time): 33.0 days
[3]; 6.25 mg/kg i.p. once a day
  80-day survivors, Survivors/Total: 3/10
[3]; 6.25 mg/kg i.p. once a day, P < 0.05
  MST (median survival time): 45.3 days
[3]; 12.5 mg/kg i.p. once a day
  80-day survivors, Survivors/Total: 4/10
[3]; 12.5 mg/kg i.p. once a day, P < 0.01
  MST (median survival time): 55.0 days
[3]; 25.0 mg/kg i.p. once a day
  80-day survivors, Survivors/Total: 9/10
[3]; 25.0 mg/kg i.p. once a day, P < 0.01
  MST (median survival time): > 80.0 days
[4]; Run 1, 6.25 mg/kg/day i.p., days 1-10
  Average No. of days before rejection: 10.2 ± 2.6 days
[4]; Run 1, 12.5 mg/kg/day i.p., days 1-10
  Average No. of days before rejection: 13.0 ± 4.2 days
[4]; Run 1, 25.0 mg/kg/day i.p., days 1-10
  Average No. of days before rejection: 14.9 ± 6.9 days
[4]; Run 1, 50.0 mg/kg/day i.p., days 1-10
  Average No. of days before rejection: 17.0 ± 3.2 days
[4]; Run 2, 25.0 mg/kg/day i.p., days 1-10
  Average No. of days before rejection: 15.0 ± 5.2 days
[4]; Run 2, 25.0 mg/kg/day i.p., days 1-20
  Average No. of days before rejection: 31.0 ± 1.9 days
[5]; 10 μg/ml
  ^3 H--thymidine uptake: 38,842 ± 21,573 dpm
[5]; 100 μg/ml
  ^3 H--thymidine uptake: 396 ± 216 dpm
[5]; Mus musculus, 10 μg/ml
  inhibition at 10 µg/mL: 83.4%
[5]; Mus musculus, 100 μg/ml
  inhibition at 100 µg/mL: 99.8%
[6]; 0.78 mg/kg i.p.
  Mean survival time: 15.2 ± 1.8 days
[6]; 1.56 mg/kg i.p., P < 0.01
  Mean survival time: 23.6 ± 9.2 days
[7]; 10 μg/ml
  ^3 H--thymidine uptake: 30,214 ± 25,033 dpm
[7]; 100 μg/ml
  ^3 H--thymidine uptake: 788 ± 182 dpm
[7]; Mus musculus, T-lymphocyte, 10 μg/ml
  inhibition at 10 µg/mL: 76.7%
[7]; Mus musculus, T-lymphocyte, 100 μg/ml
  inhibition at 100 µg/mL: 99.4%
